Experimental data as given in patent US20100041089A1, “IMPROVED METHOD FOR DETECTING CHEMICAL […]” (priority 2006, published 2010).

System: yeast genes (expressed mRNA)
Test: DNA chip measurement of expressed mRNA of yeast genes after culture with a toxic chemical substance
Format: cell-based, Saccharomyces cerevisiae S288C
How it was run: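 Expression is given as treated/untreated fluorescence ratio on a whole-genome yeast DNA chip, a ratio of two or more being significant. Log-phase S288C cultures in YPD at 25 °C received the chemical for 2 h at a dose that slows growth without killing. mRNA was reverse-transcribed with Cy3- or Cy5-dUTP.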

## C=CC=O [(14), Acrolein]
Yeast gene YAL053W, cultured two hours with substance
  The level of expressed mRNA in the presence of chemical substance/The level of expressed mRNA in the absence of chemical substance: 0.7
Yeast gene YAR028W, cultured two hours with substance
  The level of expressed mRNA in the presence of chemical substance/The level of expressed mRNA in the absence of chemical substance: 1.2
Yeast gene YBL048W, cultured two hours with substance
  The level of expressed mRNA in the presence of chemical substance/The level of expressed mRNA in the absence of chemical substance: 2.0
Yeast gene YBL049W, cultured two hours with substance
  The level of expressed mRNA in the presence of chemical substance/The level of expressed mRNA in the absence of chemical substance: 1.5
Yeast gene YBL064C (detoxification protein gene)
  The level of expressed mRNA in the presence of chemical substance/The level of expressed mRNA in the absence of chemical substance: 5.0
Yeast gene YBL107C, cultured two hours with substance
  The level of expressed mRNA in the presence of chemical substance/The level of expressed mRNA in the absence of chemical substance: 2.5
Yeast gene YBR062C, cultured two hours with substance
  The level of expressed mRNA in the presence of chemical substance/The level of expressed mRNA in the absence of chemical substance: 2.6
Yeast gene YBR116C, cultured two hours with substance
  The level of expressed mRNA in the presence of chemical substance/The level of expressed mRNA in the absence of chemical substance: 2.7
Yeast gene YCR013C, cultured two hours with substance
  The level of expressed mRNA in the presence of chemical substance/The level of expressed mRNA in the absence of chemical substance: 1.5
Yeast gene YCR102C, cultured two hours with substance
  The level of expressed mRNA in the presence of chemical substance/The level of expressed mRNA in the absence of chemical substance: 4.1
Yeast gene YDL021W, cultured for two hours with substance
  The level of expressed mRNA in the presence of chemical substance/The level of expressed mRNA in the absence of chemical substance: 3.7
Yeast gene YDL059C, DNA repair protein genes, cultured two hours with substance
  The level of expressed mRNA in the presence of chemical substance/The level of expressed mRNA in the absence of chemical substance: 4.7
Yeast gene YDL072C, cultured two hours with substance
  The level of expressed mRNA in the presence of chemical substance/The level of expressed mRNA in the absence of chemical substance: 1.8
Yeast gene YDL204W, cultured two hours with substance
  The level of expressed mRNA in the presence of chemical substance/The level of expressed mRNA in the absence of chemical substance: 2.4
Yeast gene YDL218W, cultured two hours with substance
  The level of expressed mRNA in the presence of chemical substance/The level of expressed mRNA in the absence of chemical substance: 4.8
Yeast gene YDL222C, cultured two hours with substance
  The level of expressed mRNA in the presence of chemical substance/The level of expressed mRNA in the absence of chemical substance: 1.3
Yeast gene YDR031W, cultured two hours with substance
  The level of expressed mRNA in the presence of chemical substance/The level of expressed mRNA in the absence of chemical substance: 2.5
Yeast gene YDR330W, cultured two hours with substance
  The level of expressed mRNA in the presence of chemical substance/The level of expressed mRNA in the absence of chemical substance: 1.1
Yeast gene YDR391C, cultured two hours with substance
  The level of expressed mRNA in the presence of chemical substance/The level of expressed mRNA in the absence of chemical substance: 2.3
Yeast gene YDR411C, cultured two hours with substance
  The level of expressed mRNA in the presence of chemical substance/The level of expressed mRNA in the absence of chemical substance: 0.8
Yeast gene YDR486C, cultured two hours with substance
  The level of expressed mRNA in the presence of chemical substance/The level of expressed mRNA in the absence of chemical substance: 2.4
Yeast gene YDR511W, cultured two hours with substance
  The level of expressed mRNA in the presence of chemical substance/The level of expressed mRNA in the absence of chemical substance: 2.2
Yeast gene YDR545W, cultured two hours with substance
  The level of expressed mRNA in the presence of chemical substance/The level of expressed mRNA in the absence of chemical substance: 0.7
Yeast gene YEL001C, cultured two hours with substance
  The level of expressed mRNA in the presence of chemical substance/The level of expressed mRNA in the absence of chemical substance: 1.3
Yeast gene YEL057C, cultured two hours with the chemical substance
  The level of expressed mRNA in the presence of chemical substance/The level of expressed mRNA in the absence of chemical substance: 1.5
Yeast gene YER004W, cultured two hours with substance
  The level of expressed mRNA in the presence of chemical substance/The level of expressed mRNA in the absence of chemical substance: 1.8
Yeast gene YER012W
  The level of expressed mRNA in the presence of chemical substance/The level of expressed mRNA in the absence of chemical substance: 4.6
Yeast gene YER035W, cultured two hours with substance
  The level of expressed mRNA in the presence of chemical substance/The level of expressed mRNA in the absence of chemical substance: 1.0
Yeast gene YER038C, cultured two hours with substance
  The level of expressed mRNA in the presence of chemical substance/The level of expressed mRNA in the absence of chemical substance: 1.3
Yeast gene YER079W, cultured two hours with substance
  The level of expressed mRNA in the presence of chemical substance/The level of expressed mRNA in the absence of chemical substance: 1.6
Yeast gene YER106W, cultured two hours with substance
  The level of expressed mRNA in the presence of chemical substance/The level of expressed mRNA in the absence of chemical substance: 1.5
Yeast gene YER158C, cultured two hours with substance
  The level of expressed mRNA in the presence of chemical substance/The level of expressed mRNA in the absence of chemical substance: 0.9
Yeast gene YER163C, cultured two hours with substance
  The level of expressed mRNA in the presence of chemical substance/The level of expressed mRNA in the absence of chemical substance: 1.9
Yeast gene YER175C, cultured two hours with substance
  The level of expressed mRNA in the presence of chemical substance/The level of expressed mRNA in the absence of chemical substance: 1.1
Yeast gene YFL006W, cultured two hours with substance
  The level of expressed mRNA in the presence of chemical substance/The level of expressed mRNA in the absence of chemical substance: 1.7
Yeast gene YFL010C, cultured two hours with substance
  The level of expressed mRNA in the presence of chemical substance/The level of expressed mRNA in the absence of chemical substance: 1.4
Yeast gene YFL014W, DNA repair protein genes, cultured two hours with substance
  The level of expressed mRNA in the presence of chemical substance/The level of expressed mRNA in the absence of chemical substance: 7.3
Yeast gene YFL024C, cultured two hours with substance
  The level of expressed mRNA in the presence of chemical substance/The level of expressed mRNA in the absence of chemical substance: 3.3
Yeast gene YFL032W, cultured two hours with substance
  The level of expressed mRNA in the presence of chemical substance/The level of expressed mRNA in the absence of chemical substance: 0.6
Yeast gene YFR003C, cultured two hours with substance
  The level of expressed mRNA in the presence of chemical substance/The level of expressed mRNA in the absence of chemical substance: 2.1
Yeast gene YGL037C, cultured two hours with substance
  The level of expressed mRNA in the presence of chemical substance/The level of expressed mRNA in the absence of chemical substance: 1.0
Yeast gene YGL047W, cultured two hours with substance
  The level of expressed mRNA in the presence of chemical substance/The level of expressed mRNA in the absence of chemical substance: 2.3
